# Assay results from US20250295763A1 (priority 2024, published 2025).
# Read-outs that look alike come from different tables or passages of the source.
# Columns and labels:
# [1] = for Average body weight change (%) Post-dose 1 D 1 / Body weight change (%) Post-dose 1 D 1: i.m. Days 0 and 14, 0.3 mcg H3N2; for Average body weight change (%) Post-dose 1 D 2 / Average body weight change (%) Post-dose 1 D 14 / Average body weight change (%) Post-dose 2 D 15 / Average body weight change (%) Post-dose 2 D 16 / Average body weight change (%) Post-dose 2 D 21 / Body weight change (%) Post-dose 1 D 2 / Body weight change (%) Post-dose 1 D 14 / Body weight change (%) Post-dose 2 D 15 / Body weight change (%) Post-dose 2 D 16 / Body weight change (%) Post-dose 2 D 21: same groups
# H3N2 = assay type: in vivo, C57BL/6 mice
# [2] = Table 7, 10 mcg R848 with 2, 10, 50 or 100 mcg Synsap 14
# [3] = Table 8, after the boost (day 28), 10 mcg R848 with 2, 10, 50 or 100 mcg Synsap 14, 0.3 mcg H3N2
compound,measurement,setting,value
CC1O[C@@H](OC(=O)[C@]23CCC(C)(C)CC2C2=CCC4C5(C)CC[C@H](O[C@@H]6O[C@H](C(=O)NCCCCCCCCc7ccc(Oc8ccccc8)cc7)[C@@H](O)[C@H](O)[C@H]6O)[C@](C)(C=O)[C@@H]5CC[C@]4(C)C2(C)CC3O)C(O[C@@H]2OC(C)[C@H](O[C@@H]3OC[C@@H](O)[C@H](O)C3O)[C@H](O)C2O)[C@@H](O)[C@H]1O (some centres unmarked) [Synsap 3],Average body weight change (%) Post-dose 1 D 1,"[1]; Table 1, 5 mcg 3D-PHAD with 5, 50, 75 or 100 mcg Synsap 3, Synsap 3 alone 50 mcg",2.176%
same,Average body weight change (%) Post-dose 1 D 2,[1]; Table 1,2.174%
same,Average body weight change (%) Post-dose 1 D 14,[1]; Table 1,6.946%
same,Average body weight change (%) Post-dose 2 D 15,[1]; Table 1,−0.739%
same,Average body weight change (%) Post-dose 2 D 16,[1]; Table 1,1.208%
same,Average body weight change (%) Post-dose 2 D 21,[1]; Table 1,2.329%
same,Average body weight change (%) Post-dose 1 D 1,"[1]; Table 3, 5/50 mcg TLR4 agonist/Synsap, alone: 5 mcg 3D-6A-PHAD, 5 mcg EcML, 10 mcg TLR4-1, 50 mcg Synsap, 5/5 mcg AS01B",2.176%
same,Average body weight change (%) Post-dose 1 D 2,[1]; Table 3,2.174%
same,Average body weight change (%) Post-dose 1 D 14,[1]; Table 3,6.946%
same,Average body weight change (%) Post-dose 2 D 15,[1]; Table 3,−0.739%
same,Average body weight change (%) Post-dose 2 D 16,[1]; Table 3,1.208%
same,Average body weight change (%) Post-dose 2 D 21,[1]; Table 3,2.329%
same,HI titers GMT mean,"H3N2; Table 4, after the boost (day 28), 5 mcg TLR4 agonist / 50 mcg Synsap, 0.3 mcg H3N2",192
same,HI titers Fold (compare to AS01B),"H3N2; Table 4, day 28",0.15
same,HI titers Fold (compare to H3N2),"H3N2; Table 4, day 28",1.2
CC1O[C@@H](OC(=O)[C@]23CCC(C)(C)CC2C2=CCC4C5(C)CC[C@H](O[C@@H]6O[C@H](C(=O)NCCCCCCCCc7ccc(N8CCOCC8)cc7)[C@@H](O)[C@H](O)[C@H]6O)[C@](C)(C=O)[C@@H]5CC[C@]4(C)C2(C)CC3O)C(O[C@@H]2OC(C)[C@H](O[C@@H]3OC[C@@H](O)[C@H](O)C3O)[C@H](O)C2O)[C@@H](O)[C@H]1O (some centres unmarked) [Synsap 5],Body weight change (%) Post-dose 1 D 1,"[1]; Table 5, 100 mcg Synsap 5, 10 mcg Pam3CSK4",−3.166%
same,Body weight change (%) Post-dose 1 D 2,[1]; Table 5,1.523%
same,Body weight change (%) Post-dose 1 D 14,[1]; Table 5,4.909%
same,Body weight change (%) Post-dose 2 D 15,[1]; Table 5,−0.174%
same,Body weight change (%) Post-dose 2 D 16,[1]; Table 5,3.144%
same,Body weight change (%) Post-dose 2 D 21,[1]; Table 5,7.000%
same,HI titers GMT mean,"H3N2; Table 6, after the boost (day 28), 100 mcg Synsap 5, 10 mcg Pam3CSK4, 0.3 mcg H3N2",2048
same,HI Titers Fold (compare to CpG1018),"H3N2; Table 6, day 28",0.9
same,HI Titers Fold (compare to SynSap 17),"H3N2; Table 6, day 28",1.0
same,HI titers Fold (compare to H3N2),"H3N2; Table 6, day 28",13
CC1O[C@@H](OC2[C@H](OC(=O)[C@]34CCC(C)(C)CC3C3=CCC5C6(C)CC[C@H](O[C@@H]7O[C@H](C(=O)NCCCCCCCCc8ccc(Oc9ccc(F)cc9)cc8)[C@@H](O)[C@H](O)[C@H]7O)[C@](C)(C=O)[C@@H]6CC[C@]5(C)C3(C)CC4O)OC[C@H](O)[C@H]2O)C(O)[C@@H](O)[C@H]1O[C@@H]1OC[C@@H](O)[C@H](O)C1O (some centres unmarked) [Synsap 14],Body weight change (%) Post-dose 1 D 1,[1]; [2],−1.769%
same,Body weight change (%) Post-dose 1 D 2,[1]; Table 7,−0.704%
same,Body weight change (%) Post-dose 1 D 14,[1]; Table 7,3.586%
same,Body weight change (%) Post-dose 2 D 15,[1]; Table 7,−0.277%
same,Body weight change (%) Post-dose 2 D 16,[1]; Table 7,−0.654%
same,Body weight change (%) Post-dose 2 D 21,[1]; Table 7,3.064%
same,HI titer GMT mean,H3N2; [3],192
same,HI titer Fold (compare to H3N2 alone),"H3N2; Table 8, day 28",1.2
same,HI titer Fold (compare to R848 treated group),"H3N2; Table 8, day 28",1.0
same,HI titer Fold (compare to SynSap 14 treated group),"H3N2; Table 8, day 28",1.0
CC1O[C@@H](OC(=O)[C@]23CCC(C)(C)CC2C2=CCC4C5(C)CC[C@H](O[C@@H]6O[C@H](C(=O)NCCCCCCCCc7ccc(Oc8ccccc8)cc7)[C@@H](O)[C@H](O)[C@H]6O)[C@](C)(C=O)[C@@H]5CC[C@]4(C)C2(C)CC3O)C(O[C@@H]2OC(C)[C@H](O[C@@H]3OC[C@@H](O)[C@H](O)C3O)[C@H](O[C@@H]3OC(CO)[C@@H](O)[C@H](O)C3O)C2O)[C@@H](O)[C@H]1O (some centres unmarked) [Synsap 17],Body weight change (%) Post-dose 1 D 1,"[1]; Table 9, 10 mcg CpG 1018 with 10, 50, 75 or 100 mcg Synsap 17, or 50 mcg CpG 1018 with 10 mcg Synsap 17",−1.769%
same,Body weight change (%) Post-dose 1 D 2,[1]; Table 9,−0.704%
same,Body weight change (%) Post-dose 1 D 14,[1]; Table 9,3.586%
same,Body weight change (%) Post-dose 2 D 15,[1]; Table 9,−0.277%
same,Body weight change (%) Post-dose 2 D 16,[1]; Table 9,−0.654%
same,Body weight change (%) Post-dose 2 D 21,[1]; Table 9,2.921%
same,HI titer GMT mean,"H3N2; Table 10, after the boost (day 28), CpG 1018 / Synsap 17 ratios, 0.3 mcg H3N2",183.8
same,HI titer Fold (compare to CpG1018),"H3N2; Table 10, day 28",0.6
same,HI titer Fold (compare to H3N2),"H3N2; Table 10, day 28",1.1
same,HI titer Fold (compare to Synsap 17),"H3N2; Table 10, day 28",1.0
"CCOCc1nc2c(N)nc3ccccc3c2n1CC(C)(C)O [Synsap R848, Resiquimod, reference compound]",Body weight change (%) Post-dose 1 D 1,[1]; [2],−3.012%
same,Body weight change (%) Post-dose 1 D 2,[1]; Table 7,−0.416%
same,Body weight change (%) Post-dose 1 D 14,[1]; Table 7,5.224%
same,Body weight change (%) Post-dose 2 D 15,[1]; Table 7,−4.078%
same,Body weight change (%) Post-dose 2 D 16,[1]; Table 7,−0.804%
same,Body weight change (%) Post-dose 2 D 21,[1]; Table 7,1.856%
same,HI titer GMT mean,H3N2; [3],183.8
same,HI titer Fold (compare to H3N2 alone),"H3N2; Table 8, day 28",1.1
same,HI titer Fold (compare to R848 treated group),"H3N2; Table 8, day 28",1.0
same,HI titer Fold (compare to SynSap 14 treated group),"H3N2; Table 8, day 28",1.0
Poly(I:C) [reference compound],HI titer Fold (compare to H3N2),"H3N2; mouse, in vivo",1
same,HI titer Fold (compare to SynSap 21),"H3N2; mouse, in vivo",0.5
same,HI titer Fold (compare to TLR3),"H3N2; mouse, in vivo",0.3299
same,HI titer GMT mean,"H3N2; mouse, in vivo",640
